Experiment [1] deals with human RIPK1 (Homo sapiens (Human), UniProt Q13546). The experiment in a line: KINOMEscan binding assay, human RIPK1. The settings on record: Table 21. Put shortly: (§1)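 Assay principle: test compound competes with immobilized bead ligand for kinase; kinase retained, then eluted, is counted by qPCR. Conditions were 1% DMSO final with 11 compound concentrations in 3-fold steps, 30,000 nM top for most. The Hill equation with slope −1 gave Kd.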

For experiment [2], the target named is human RIPK3 (Homo sapiens (Human), UniProt Q9Y572). The experiment can be described thus: KINOMEscan binding assay, human RIPK3. The settings on record: Table 21. The gist of the method: as §1
In experiment [3] the target is endogenous MLKL in MDF (Mus musculus (Mouse), UniProt Q9D2Y4). The experiment in a line: Degradation assay: endogenous MLKL in MDF (western blot). The settings on record: MDF cells, 24 h incubation with compound, MLKL adjusted for loading with GAPDH, normalized to DMSO only control, read-out: Degradation of endogenous MLKL in MDF (DC50 cell-based assay). Put shortly:
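Western blot band intensity of MLKL, adjusted to GAPDH loading and normalized to DMSO-only wells, gave percent degradation. Compound exposure lasted 24 h at final concentrations of 10–0.016 μM in 1:5 steps, in mouse dermal fibroblasts or human U937 cells.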

For orientation: Kd means the equilibrium constant for the complex coming apart. As a reminder, the DC50 is the midpoint of the concentration-degradation curve.

Chain of human RIPK1 (Q13546 whole entry): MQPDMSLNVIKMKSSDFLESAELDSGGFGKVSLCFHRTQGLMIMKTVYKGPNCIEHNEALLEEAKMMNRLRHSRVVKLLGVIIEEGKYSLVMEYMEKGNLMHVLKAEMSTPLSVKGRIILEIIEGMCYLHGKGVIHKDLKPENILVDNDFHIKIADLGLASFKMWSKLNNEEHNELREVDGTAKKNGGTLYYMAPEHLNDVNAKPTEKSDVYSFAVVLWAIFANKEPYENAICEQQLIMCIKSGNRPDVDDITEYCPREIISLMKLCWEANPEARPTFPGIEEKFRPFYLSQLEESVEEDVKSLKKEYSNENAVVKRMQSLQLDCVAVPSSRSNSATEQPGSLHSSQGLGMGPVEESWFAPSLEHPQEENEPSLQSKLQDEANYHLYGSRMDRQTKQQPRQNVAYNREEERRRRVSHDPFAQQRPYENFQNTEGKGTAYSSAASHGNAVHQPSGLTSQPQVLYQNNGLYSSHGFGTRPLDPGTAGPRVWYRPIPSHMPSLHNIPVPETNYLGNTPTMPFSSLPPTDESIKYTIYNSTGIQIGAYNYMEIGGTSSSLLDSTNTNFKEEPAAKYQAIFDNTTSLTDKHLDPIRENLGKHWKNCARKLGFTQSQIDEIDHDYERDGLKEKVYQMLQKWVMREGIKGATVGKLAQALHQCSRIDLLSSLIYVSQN
Chain of human RIPK3 (Q9Y572 whole entry): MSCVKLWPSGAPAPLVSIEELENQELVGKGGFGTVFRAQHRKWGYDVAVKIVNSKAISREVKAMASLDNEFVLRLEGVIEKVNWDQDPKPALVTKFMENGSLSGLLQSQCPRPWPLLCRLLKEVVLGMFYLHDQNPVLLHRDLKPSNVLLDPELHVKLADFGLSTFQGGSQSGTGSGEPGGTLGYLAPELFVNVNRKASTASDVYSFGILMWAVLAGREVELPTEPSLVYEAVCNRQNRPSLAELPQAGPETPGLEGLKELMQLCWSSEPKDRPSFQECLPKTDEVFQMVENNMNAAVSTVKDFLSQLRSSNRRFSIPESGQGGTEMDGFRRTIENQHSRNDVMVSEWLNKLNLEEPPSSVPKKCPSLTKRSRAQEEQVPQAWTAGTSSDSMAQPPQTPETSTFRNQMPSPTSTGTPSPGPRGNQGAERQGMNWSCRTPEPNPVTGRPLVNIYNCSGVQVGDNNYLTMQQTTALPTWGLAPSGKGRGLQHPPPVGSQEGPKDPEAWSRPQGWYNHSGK
Chain of endogenous MLKL in MDF (Q9D2Y4 whole entry): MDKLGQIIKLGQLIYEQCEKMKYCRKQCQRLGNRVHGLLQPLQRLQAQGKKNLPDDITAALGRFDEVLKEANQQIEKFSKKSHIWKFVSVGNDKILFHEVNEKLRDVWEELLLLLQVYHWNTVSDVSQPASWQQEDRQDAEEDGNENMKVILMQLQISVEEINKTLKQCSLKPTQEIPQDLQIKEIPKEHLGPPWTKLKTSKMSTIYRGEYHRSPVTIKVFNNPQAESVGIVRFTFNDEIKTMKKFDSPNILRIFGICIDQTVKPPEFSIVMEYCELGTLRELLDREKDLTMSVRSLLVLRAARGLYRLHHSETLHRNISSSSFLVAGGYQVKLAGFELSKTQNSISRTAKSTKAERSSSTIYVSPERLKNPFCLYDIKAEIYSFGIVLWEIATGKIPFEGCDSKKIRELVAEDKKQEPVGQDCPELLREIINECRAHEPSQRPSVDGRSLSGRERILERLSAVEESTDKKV

For the compound “N-(4-(4-amino-1-methyl-7-(1-(1,2,2-trimethylpiperidin-4-yl)-1H-pyrazol-4-yl)-1H-pyrazolo[4,3-c]pyridin-3-yl)-2-((S)-1-(4-fluorophenyl)ethoxy)phenyl)-1,1-difluoromethanesulfonamide [Compound 113]”, the Kd in experiment [1] and in experiment [2] was more than 10 µM in each case. For `Nc1ncc(-c2cnn(C3CCOCC3)c2)c2[nH]nc(-c3ccc(NS(=O)(=O)C(F)F)c(OCc4cccc(Cl)c4)c3)c12` [Compound 131], the Kd in experiment [1] and in experiment [2] was more than 10 µM in each case. Consider `C[C@H](Oc1cc(-c2nn(C)c3c(-c4cnn(CCCCCCCOc5cccc6c5C(=O)N(C5CCC(=O)NC5=O)C6=O)c4)cnc(N)c23)ccc1NS(=O)(=O)C(F)F)c1ccc(F)cc1` (some centres unmarked) [Compound 1031, N-(4-{4-amino-7-[1-(7-{[2-(2,6-dioxopiperidin-3-yl)-1,3-dioxo-2,3-dihydro-1H-isoindol-4-yl]oxy}heptyl)-1H-pyrazol-4-yl]-1-methyl-1H-pyrazolo[4,3-c]pyridin-3-yl}-2-[(1 S)-1-(4-fluorophenyl)ethoxy]phenyl)-1,1-difluoromethanesulfonamide], for which, in experiment [3], the DC50 was less than 1 µM.

The record behind these values is US20250115598A1 (Anaxis Pharma Pty Ltd, priority 2021, published 2025).
